The target in data set [1] is mammalian mitochondrial complexes I–III (Bos taurus, UniProt P00157+P03887+P17694+P42026). The experiment in a line: NADH-cytochrome c reductase (complexes I–III) activity assay. Format: biochemical. As to conditions: bovine heart mitochondria, range tested 0.0007 to 22.7 µM; read-out: IC50 Mammalian Mitochondrial CI–III.
Data set [2] has as its target mammalian mitochondrial complexes II–III (Bos taurus, UniProt P00157+P35720+Q3T189+Q95123). The experiment in a line: succinate-cytochrome c reductase (complexes II–III) activity assay. The format is biochemical. Particulars: bovine heart mitochondria, range tested 0.0007 to 22.7 µM; read-out: IC50 Mammalian Mitochondrial CII–III.
A short description of data set [3]: Cytotoxicity assay, HDF (Cell Counting Kit-8). Format: cell-based. As to conditions: human dermal fibroblast (HDF) cells, normal human dermal fibroblasts. For orientation: Tetrazolium assays rely on reduction of a dye to a coloured formazan, in cell work by metabolically active cells.
The subject of data set [4] is P. falciparum 3D7. The experiment in a line: In vitro antimalarial assay (PfLDH/diaphorase). The format is cell-based. Particulars: Plasmodium falciparum, growth inhibition, 72 h, 0.0003 to 10 µM, read-out: EC50 Pf3D7.
The test system of data set [5] is P. falciparum 3D7 strain expressing the cytosolic yeast DHODH (3D7-yDHODH). The experiment in a line: Confirmation assay against transgenic parasite 3D7-yDHODH. Format: cell-based, Plasmodium falciparum. As to conditions: for activity at 10 µM: 72 h, relative parasite growth at 10 µM compound, read-out: Growth at 10 µM (%) Pf3D7-yDHODH; for susceptibility of Pf3D7-yDHODH parasite (in words): relative parasite growth at 10 µM, compared with wild-type 3D7. The protocol: Synchronized ring-stage parasites at 0.3% parasitemia and 2% hematocrit were cultured in a 384-well plate at 25 µL with test compounds at a final concentration in the range of 0.0003 to 10 µM with a fixed DMSO concentration of 0.4% (v/v). Parasite growth was monitored by the diaphorase-coupled P. falciparum lactate dehydrogenase (PfLDH) assay, as previously described. After 72 h, 70 µL of the assay solution (150 mM lithium L-lactate (Wako), 0.05 mg/mL 3-acetylpyridine adenine dinucleotide (Oriental Yeast Co., Ltd., Tokyo, Japan), 0.2 mg/mL nitro blue tetrazolium (Wako), 1 unit/mL diaphorase, and 100 mM Tris-HCl pH 8.0) were mixed with the parasite culture and incubated at room temperature for 40 min, and the generated nitro blue formazan was measured at 650 nm using a SpectraMax®® Paradigm®® Multi-Mode Microplate Reader. […] The EC50 was calculated using GraphPad Prism 8.0 software from the mean of quadruplets values.
The P. falciparum 3D7 strain expressing the cytosolic yeast DHODH (3D7-yDHODH) was prepared as follows. pHHyDHODH-GFP plasmid (Kerafast, Boston, MA, USA) was transfected to the P. falciparum 3D7 strain following the established transfection method. Briefly, 50 µg of plasmid dissolved in cytomix solution (120 mM KCl, 0.15 mM CaCl2, 10 mM K2HPO4/KH2PO4 pH 7.6, 25 mM HEPES-KOH pH 7.6, 2 mM ethylene glycol-bis(β-aminoethyl ether)-N,N,N′,N′-tetraacetic acid (EGTA, Dojindo), and 5 mM magnesium chloride (Wako)) was transfected into the red blood cells by the Gene Pulser Xcell (Bio-Rad). Percoll–sorbitol synchronized parasites were mixed with red blood cells containing plasmid and maintained under 5 nM WR99210 for 2 weeks. The growth of resistant parasites against DSM265 and atovaquone, as PfDHODH and complex III inhibitors respectively, was confirmed by PfLDH/diaphorase assay. A total of 10 µM PfDHODH inhibitors were tested against wild-type 3D7 and 3D7-yDHODH following the method described above in triplicate. The significance of difference between the inhibition of the two parasite strains was evaluated by Student’s t-test (Figure S4).

Structures are written as SMILES.

The IC50 is the concentration that gives 50% inhibition. In general, EC50 refers to the midpoint of the concentration-response curve.

Consider `N=C1Sc2cc(-c3cc4ccccc4o3)ccc2C2=NCCCN12` [Compound 7], for which the IC50 in data set [1] and in data set [2] was greater than 22.7 µM each time. This compound also had an EC50 at 48 h in data set [3] greater than 10 µM. The EC50 in data set [4] stood at 0.34 ± 0.01 µM. Besides, the activity at 10 µM in data set [5] worked out at 36.2 ± 1.01%.

In the case of `N=C1Sc2cc(-c3ccc4c(c3)OCCO4)ccc2C2=NCCCN12` [Compound 4], the IC50 in data set [1] and in data set [2] was greater than 22.7 µM in each case. For the same compound, the half-maximal effective concentration (EC50) at 48 h in data set [3] is greater than 10 µM. Also, the 50% effective concentration (EC50) in data set [4] was found to be 1.07 ± 0.05 µM. Further, the activity at 10 µM in data set [5] amounted to 24 ± 5.76%.

For the compound `COC(=O)c1ccc(-c2ccc3c(c2)SC(=N)N2CCCN=C32)cc1` [Compound 13], in data set [1], the IC50 is greater than 22.7 µM. The IC50 in data set [2] was greater than 22.7 µM. In data set [3], this compound registered an EC50 at 48 h greater than 10 µM. Besides, the half-maximal effective concentration (EC50) in data set [4] is 1.06 ± 0.01 µM. In data set [5], the activity at 10 µM came to 70.5 ± 0.73% and the “susceptibility of Pf3D7-yDHODH parasite (in words)” value is listed as “reduced susceptibility”.

Turning to `COc1ccccc1-c1ccc2c(c1)SN1CCCN=C21` [Compound 42], the IC50 in data set [1] and in data set [2] was greater than 22.7 µM in each case. Also, in data set [3], the EC50 at 48 h was 9.77 µM. Besides, the 50% effective concentration (EC50) in data set [4] was determined as 0.54 ± 0.22 µM. In data set [5], the activity at 10 µM was 0.04 ± 0.15%.

`N=C1Sc2cc(/C=C/c3ccccc3)ccc2C2=NCCCN12` [Compound 8]: the half-inhibitory concentration (IC50) in data set [1] and in data set [2] was greater than 22.7 µM in each case. Besides, in data set [3], the EC50 at 48 h is greater than 10 µM. Also, in data set [4], the EC50 was 0.63 ± 0.25 µM. The activity at 10 µM in data set [5] came to 0.12 ± 0.21%.

In the case of `N=C1Sc2cc(-c3ccc(C(=O)c4ccccc4)cc3)ccc2C2=NCCCN12` [Compound 19], the IC50 in data set [1] was greater than 22.7 µM. Moreover, in data set [2], the IC50 was greater than 22.7 µM. For the same compound, in data set [3], the 50% effective concentration (EC50) at 48 h was greater than 10 µM. The EC50 in data set [4] stood at 0.51 ± 0.14 µM. For the same compound, in data set [5], the activity at 10 µM came to 68.6 ± 0.43% and the “susceptibility of Pf3D7-yDHODH parasite (in words)” value is listed as “reduced susceptibility”.

Take `COC(=O)c1cccc(-c2ccc3c(c2)SN2CCCN=C32)c1` [Compound 40]: the IC50 in data set [1] and in data set [2] was greater than 22.7 µM in each case. Also, the 50% effective concentration (EC50) at 48 h in data set [3] is 9.16 µM. Further, the EC50 in data set [4] turned out to be 1.72 ± 0.48 µM. Also, the activity at 10 µM in data set [5] was -0.09 ± 0.08%.

For the compound `CC(C)(C)N=C1Sc2cc(-c3cc4ccccc4s3)ccc2C2=NCCCN12` [Compound 10], the half-maximal inhibitory concentration (IC50) in data set [1] and in data set [2] was greater than 22.7 µM throughout. In data set [3], this compound had a 50% effective concentration (EC50) at 48 h greater than 10 µM. For the same compound, in data set [4], the EC50 is 2.77 ± 0.28 µM. Besides, the activity at 10 µM in data set [5] was -0.48 ± 0.07%.

Take `COC(=O)c1ccc(-c2ccc3c(c2)SN2CCCN=C32)cc1` [Compound 37]: the IC50 in data set [1] and in data set [2] was greater than 22.7 µM in each case. In data set [3], this compound returned an EC50 at 48 h of 8.43 µM. Besides, the EC50 in data set [4] was 2.78 ± 0.27 µM. In addition, the activity at 10 µM in data set [5] was -0.18 ± 0.05%.

Take `C#CCOCc1ccc(C(=O)c2ccc(-c3ccc4c(c3)SC(=N)N3CCCN=C43)cc2)cc1` [Compound 20]: the IC50 in data set [1] and in data set [2] was greater than 22.7 µM in each case. Also, in data set [3], the EC50 at 48 h was greater than 10 µM. For the same compound, the EC50 in data set [4] was found to be 0.38 ± 0.08 µM. Also, the activity at 10 µM in data set [5] is 0.45 ± 0.74%.

Values taken from PMC8268581, “Identification of 3,4-Dihydro-2H,6H-pyrimido[1,2-c][1,3]benzothiazin-6-imine Derivatives as Novel Selective Inhibitors of Plasmodium falciparum Dihydroorotate Dehydrogenase” (International Journal of Molecular Sciences, 2021).
